In patent US9221802B2, “Arylethynyl derivatives” (Hoffmann-La Roche Inc., priority 2012, dated 2015):
Read-outs that look alike come from different tables or passages of the source.

Experiments:
human mGlu5a receptor = human mGlu5a receptor (Homo sapiens (Human), UniProt P41594); experiment: Intracellular Ca2+ mobilization assay; assay type: cell-based; conditions: for EC50: HEK-293 cells expressing human mGlu5a; for Emax: maximal response in % of maximal stimulatory effect of saturating L-glutamate, read-out: Efficacy [%]
Method: A monoclonal HEK-293 cell line stably transfected with a cDNA encoding for the human mGlu5a receptor was generated; for the work with mGlu5 Positive Allosteric Modulators (PAMs), a cell line with low receptor expression levels and low constitutive receptor activity was selected to allow the differentiation of agonistic versus PAM activity. Cells were cultured according to standard protocols (Freshney, 2000) in Dulbecco's Modified Eagle Medium with high glucose supplemented with 1 mM glutamine, 10% (vol/vol) heat-inactivated bovine calf serum, Penicillin/Streptomycin, 50 μg/ml hygromycin and 15 μg/ml blasticidin (all cell culture reagents and antibiotics from Invitrogen, Basel, Switzerland).
About 24 hrs before an experiment, 5×10^4 cells/well were seeded in poly-D-lysine coated, black/clear-bottomed 96-well plates. The cells were loaded with 2.5 μM Fluo-4AM in loading buffer (1×HBSS, 20 mM HEPES) for 1 hr at 37° C. and washed five times with loading buffer. The cells were transferred into a Functional Drug Screening System 7000 (Hamamatsu, Paris, France), and 11 half logarithmic serial dilutions of test compound at 37° C. were added and the cells were incubated for 10-30 min. with on-line recording of fluorescence. Following this pre-incubation step, the agonist L-glutamate was added to the cells at a concentration corresponding to EC20 (typically around 80 μM) with on-line recording of fluorescence; in order to account for day-to-day variations in the responsiveness of cells, the EC20 of glutamate was determined immediately ahead of each experiment by recording of a full dose-response curve of glutamate. Responses were measured as peak increase in fluorescence minus basal (i.e. fluorescence without addition of L-glutamate), normalized to the maximal stimulatory effect obtained with saturating concentrations of L-glutamate. Graphs were plotted with the % maximal stimulatory using XLfit, a curve fitting program that iteratively plots the data using Levenburg Marquardt algorithm. The single site competition analysis equation used was y=A+((B−A)/(1+((x/C)D))), where y is the % maximal stimulatory effect, A is the minimum y, B is the maximum y, C is the EC50, x is the log 10 of the concentration of the competing compound and D is the slope of the curve (the Hill Coefficient). From these curves the EC50 (concentration at which half maximal stimulation was achieved), the Hill coefficient as well as the maximal response (=Efficacy) in % of the maximal stimulatory effect obtained with saturating concentrations of L-glutamate were calculated.
A depression of the signal observed after addition of the EC20 concentration of L-glutamate was indicative of an inhibitory activity of the test compound.
The Intracellular Ca^2+ mobilization assay as described before was used for determination of EC50 values.

[1] = Glutathione (GSH) addition assay after metabolic activation; assay type: in vitro ADME, human; parameters: key: Samples for which the mass of a covalent adduct to a reactive metabolite was clearly detected are indicated as FLAG (positive); Compounds for which no adduct was detected are designated NO FLAG (negative); conditions: glutathione adduct detection after metabolic activation
Method: The assay conditions for the detection of glutathione conjugates follow the procedure described by C. M. Dieckhaus et al. in Chem. Res. Toxicol., 18, 630-638 (2005). Samples for which the mass of a covalent adduct to a reactive metabolite was clearly detected are indicated as FLAG (positive). Compounds for which no adduct was detected are designated NO FLAG (negative).
The “gold standard” CVB (covalent binding) assay, which detects the formation of covalent adducts by incubation of test compounds with human liver microsomes (HLM) needs to be conducted with 14C-labelled material. This is not appropriate for routine screening purposes. The glutathione assay after metabolic activation (see assay description) is appropriate for routine screening, and compounds that show significant activity in this assay are very likely to show activity in the CVB assay. […] Generally speaking, compounds of the present invention therefore have a clear advantage with respect to drug safety due to their much less pronounced tendency to form reactive metabolites compared to structurally similar compounds of prior art.

[2] = PAM activity in presence of EC20 L-glutamate, read-out: Ec50
[3] = PAM activity, read-out: EC50 (nM) mGlu5 PAM

human mGlu5a receptor, sequence (P41594 other isoform, or with tags, fused parts or gaps): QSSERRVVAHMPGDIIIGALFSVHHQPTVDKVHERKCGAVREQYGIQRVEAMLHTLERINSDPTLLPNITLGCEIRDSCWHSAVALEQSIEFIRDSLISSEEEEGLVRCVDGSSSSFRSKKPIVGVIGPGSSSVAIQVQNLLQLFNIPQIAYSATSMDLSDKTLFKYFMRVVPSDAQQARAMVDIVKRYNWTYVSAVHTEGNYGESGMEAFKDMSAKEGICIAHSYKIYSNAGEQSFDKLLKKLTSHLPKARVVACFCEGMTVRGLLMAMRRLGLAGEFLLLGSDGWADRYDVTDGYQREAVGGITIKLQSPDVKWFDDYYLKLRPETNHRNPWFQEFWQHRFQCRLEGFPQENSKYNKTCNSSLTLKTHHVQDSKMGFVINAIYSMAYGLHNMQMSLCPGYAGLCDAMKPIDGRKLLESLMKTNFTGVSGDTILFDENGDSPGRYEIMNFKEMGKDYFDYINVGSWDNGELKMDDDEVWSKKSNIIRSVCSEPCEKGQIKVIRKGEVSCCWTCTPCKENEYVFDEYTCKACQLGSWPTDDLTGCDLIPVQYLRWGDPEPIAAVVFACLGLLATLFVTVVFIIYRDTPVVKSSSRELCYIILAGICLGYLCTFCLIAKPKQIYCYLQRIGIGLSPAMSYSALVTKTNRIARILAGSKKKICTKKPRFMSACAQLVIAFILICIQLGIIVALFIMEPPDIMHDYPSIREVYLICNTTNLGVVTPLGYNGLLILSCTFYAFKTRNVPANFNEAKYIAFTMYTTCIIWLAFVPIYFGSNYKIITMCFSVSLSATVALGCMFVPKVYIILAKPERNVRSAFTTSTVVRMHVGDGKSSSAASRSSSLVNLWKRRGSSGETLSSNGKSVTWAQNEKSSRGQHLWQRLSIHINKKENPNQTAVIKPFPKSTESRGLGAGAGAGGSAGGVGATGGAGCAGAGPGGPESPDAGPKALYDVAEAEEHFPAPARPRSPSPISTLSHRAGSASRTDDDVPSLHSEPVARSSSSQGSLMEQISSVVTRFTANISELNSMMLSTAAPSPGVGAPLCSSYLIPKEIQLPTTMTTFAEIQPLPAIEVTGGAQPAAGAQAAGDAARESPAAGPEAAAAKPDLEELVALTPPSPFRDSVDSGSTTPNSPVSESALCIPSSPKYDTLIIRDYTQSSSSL

| EC50 (human mGlu5a receptor; [3]) [nM] | SMILES | EC50 (human mGlu5a receptor; [2]) [nM] | Emax (human mGlu5a receptor) [%] | GSH [HLM] [1] |
| --- | --- | --- | --- | --- |
| 15 | O=C1OC[C@H]2CCC[C@H]2N1c1ccc(C#Cc2cc(F)ccc2F)cn1 [Ex. 4, (4aS,7aR)-1-[5-(2,5-Difluorophenylethynyl)-pyridin-2-yl]-hexahydro-cyclopenta[d]-[1,3]oxazin-2-one] | 15 | 35 | NO FLAG |
| 10 | O=C1OC[C@H]2CCC[C@H]2N1c1ccc(C#Cc2cccc(F)c2)cn1 [Ex. 2, (4aS,7aR)-1-[5-(3-Fluorophenylethynyl)-pyridin-2-yl]-hexahydro-cyclopenta[d][1,3]oxazin-2-one] | 10 | 43 | NO FLAG |
| 22 | O=C1OC[C@H]2CCC[C@H]2N1c1ccc(C#Cc2ccccc2)cn1 [Ex. 1, (4aS,7aR)-1-(5-Phenylethynyl-pyridin-2-yl)-hexahydro-cyclopenta[d][1,3]oxazin-2-one] | 22 | 38 | NO FLAG |
|  | CC1(C)CCN(c2ccc(C#Cc3cc(F)ccc3F)cn2)C(=O)O1 [Ref. Ex. 81] | 12 | 95 | FLAG |
|  | CC1(C)COC(=O)N(c2ccc(C#Cc3ccccc3)cn2)C1 [Ref. Ex. 20] | 27 | 135 |  |
| 10 | O=C1OC[C@H]2CCC[C@H]2N1c1ccc(C#Cc2ccc(F)cc2)cn1 [Ex. 3, (4aS,7aR)-1-[5-(4-Fluorophenylethynyl)-pyridin-2-yl]-hexahydro-cyclopenta[d][1,3]oxazin-2-one] | 10 | 40 | NO FLAG |
|  | CC1(C)CCN(c2ccc(C#Cc3ccc(F)cc3)cn2)C(=O)O1 [Ref. Ex. 79] | 22 | 85 | FLAG |
|  | CC1(C)CCN(c2ccc(C#Cc3cccc(F)c3)cn2)C(=O)O1 [Ref. Ex. 76] | 13 | 124 | FLAG |
|  | CC1(C)CCN(c2ccc(C#Cc3ccccc3)cn2)C(=O)O1 [Ref. Ex. 72] | 10 | 86 | FLAG |
|  | O=C1O[C@H]2CCC[C@H]2CN1c1ccc(C#Cc2ccccc2)cn1 [Ref. Ex. 103] | 27 | 123 | FLAG |
